Measurements from ChEMBL document CHEMBL3745675, “Design and optimization of selective azaindole amide M1 positive allosteric modulators” (Bioorg Med Chem Lett, 2016).

Tests used:
[1] = Permeability in RRCK cells; format: ADME, cell-based, Canis lupus familiaris, MDCKII-LE; conditions: dog, MDCK; read-out: permeability
[2] = Ratio of unbound AUC in brain to plasma in C57BL/6j mouse; format: ADME, organism-based; conditions: read-out: Ratio AUC
Plasma = test: Fraction unbound in C57BL/6j mouse plasma; format: ADME, cell-free

Row | Compound | Papp [1] [×10⁻⁶ cm/s] | Kp uu [2] | Cp(f) (Plasma) [nM]
1 | O=C(N[C@H]1CCOC[C@@H]1O)c1cn(Cc2ccc(-n3cccn3)cc2)c2cccnc12 | 21.7 | 0.04 | 0.13
2 | O=C(N[C@H]1CCOC[C@@H]1O)c1cn(Cc2ccc(-c3cc[nH]n3)cc2)c2cccnc12 | 14 |  | 
